Experimental data from patent US5455348A, “2-pyrrolidinones, pharmaceutical compositions containing these compounds and processes for preparing them” (Thomae; Karl, priority 1991, dated 1995).
pEC50, pIC50: −log10 of the molar value. Where a name gives a salt, the structure may show the parent alone. Read-outs that look alike come from different tables or passages of the source.

Tests used:
[1] = biological target: fibrinogen binding to human thrombocytes; experiment: Fibrinogen binding to human thrombocytes; conditions: gel-filtered human platelets, 125I fibrinogen, ADP, 20 minutes, ambient temperature; read-out: Fibrinogen-binding test IC50
Protocol: The blood obtained by puncturing an antecubital vein is anticoagulated with trisodium citrate (final concentration: 13 mM) and centrifuged for 10 minutes at 170×g. The supernatant platelet-rich plasma is poured onto a Sepharose 2B column (Pharmacia) and eluted with a solution of 90 mM common salt, 14 mM trisodium citrate, 5 mM glucose and 50 mM Tris(hydroxymethyl)aminomethane, adjusted to pH 7.4. The gel-filtered platelets (GFP) appearing before the plasma proteins are used for the binding experiments.
50 μl of a 60 mM calcium chloride solution, 50 μl of a 0.6 mM adenosine diphosphate solution, 100 μl of substance solution or solvent and 50 μl of fibrinogen solution (containing 3 μg of ^125 I fibrinogen) are added to 750 μl of GFP and incubated for 20 minutes at ambient temperature. The non-specific binding is determined in the presence of 3 mg/ml of cold fibrinogen.
900 μl of the incubated material are carefully pipetted onto 250 μl of silicon oil (AP 38: AR 20, 1:2 v/v, Wacker Chemie) in Eppendorf tubes and centrifuged for 2 minutes at 10,000×g. The aqueous supernatant and some of the oil are drawn off, the tips of the tubes are cut off together with the platelet pellet and the quantity of bound fibrinogen is determined in a gamma counter. The concentration of substance which brings about a 50% inhibition in fibrinogen binding is determined from a series of concentrations and is given as the IC50 value.

[2] = Tolerance after intravenous administration; assay type: in vivo; conditions: intravenous administration of 30 mg/kg to three mice
[3] = system: collagen-induced thrombocyte aggregation in platelet-rich plasma; experiment: Collagen-induced platelet aggregation in platelet-rich plasma (Born and Cross method); assay type: cell-based, healthy volunteers (human); conditions: read-out: Inhibition of platelet aggregation EC50
Protocol: The thrombocyte aggregation is measured using the Born and Cross method (J. Physiol. 170: 397 (1964)) in platelet-rich plasma taken from healthy volunteers. To inhibit coagulation the blood is mixed with 3.14% sodium citrate in a ratio by volume of 1:10.
Collagen-induced aggregation
The pattern of the decrease in optical density of the platelet suspension is photometrically measured and recorded after the addition of aggregation-triggering substance. The rate of aggregation is concluded from the angle of inclination of the density curve. The point on the curve where there is maximum light transmittance is used to calculate the optical density.
The amount of collagen used is as small as possible but sufficient to produce an irreversible reaction curve. Standard commercial collagen produced by Hormonchemie of Munich is used. Before the addition of the collagen the plasma is incubated for 10 minutes with the substance at 37° C.
From the measurements obtained an EC50 is determined graphically, indicating a 50% change in the optical density in terms of the inhibition of aggregation.

[4] = system: collagen-induced thrombocyte aggregation; experiment: Inhibition of collagen-induced thrombocyte aggregation ex vivo after oral administration; assay type: in vivo; conditions: Rhesus monkeys, oral administration of 1 mg/kg
Protocol: Moreover, the compound of Example 5, for example, inhibits the collagen-induced thrombocyte aggregation ex vivo in Rhesus monkeys for more than 8 hours after oral administration of 1 mg/kg.

[5] = collagen-induced, human platelet-rich plasma, 10 minutes preincubation at 37° C.

N=C(N)c1ccc(NC(=O)c2cccn(C[C@@H]3C[C@@H](CC(=O)O)C(=O)N3CCCc3ccccc3)c2=O)cc1 [4(18)]
pIC50 [1]: 7.26 | animals died [2]: no animals died | pEC50 ([3]; Homo sapiens, Platelet): 6.37

N=C(N)c1cnc(-c2ccc(OC[C@@H]3C[C@@H](CC(=O)O)C(=O)N3)cc2)s1 [Example 1(3), (3S,5S)-5-[[4-(5-amidino-2-thiazolyl)phenyl]oxymethyl]-3-carboxymethyl-2-pyrrolidinone×0.6 H2 O]
pIC50 [1]: 7.38 | pEC50 [3, 5]: 7.00

N=C(N)c1ccc(-c2ccc(OC[C@@H]3C[C@@H](CC(=O)O)C(=O)N3)cc2)nc1 [Example 1, (3S,5S)-5-[[4-(5-amidino-2-pyridyl)phenyl]oxymethyl]-3-carboxymethyl-2-pyrrolidinone]
animals died [2]: no animals died | pEC50 [3, 5]: 7.22

N=C(N)c1ccc(-c2ccc(OC[C@@H]3C[C@@H](CC(=O)O)CN3c3ncccn3)cc2)cc1 [Example 4(2), (3S,5S)-5-[(4'-amidino-4-biphenylyl)oxymethyl]-3-carboxymethyl-1-(2-pyrimidyl)-pyrrolidine×0.25 HCl×0.4 H2 O]
pIC50 [1]: 6.70 | pEC50 [3, 5]: 6.27

Nc1nccc2cc(-c3ccc(OC[C@@H]4C[C@@H](CC(=O)O)C(=O)N4)cc3)ccc12 [Example 4(3), (3S,5S)-5-[[4-(1-amino-6-isoquinolinyl)phenyl]oxymethyl]-3-carboxymethyl-2-pyrrolidinone-hydrochloride]
pIC50 [1]: 6.80 | pEC50 [3, 5]: 4.42

N=C(N)c1ccc(-c2ccc(OC[C@@H]3C[C@@H](CC(=O)O)CN3C(=O)c3cccnc3)cc2)cc1 [Example 4(4), (3S,5S)-5-[(4'-amidino-4-biphenylyl)oxymethyl]-3-carboxymethyl-1-nicotinoyl-pyrrolidine]
pIC50 [1]: 6.85 | pEC50 [3, 5]: 6.68

N=C(N)c1ccc(-c2ccc(OC[C@@H]3C[C@@H](CC(=O)O)C(=O)N3c3cccnc3)cc2)cc1 [Example 4(6), (3S,5S)-5-[(4'-amidino-4-biphenylyl)oxymethyl]-3-carboxymethyl-1-(3-pyridyl)-2-pyrrolidinone×1.2 H2 O]
pIC50 [1]: 7.51 | pEC50 [3, 5]: 6.80

N=C(N)c1ccc2c(c1)CCN(C(=O)NCC[C@@H]1C[C@@H](CC(=O)O)C(=O)N1CCCc1ccccc1)CC2 [Example 4(8), (3S,5S)-5-[2-[(7-amidino-1H-2,3,4,5-tetrahydro-3-benzazepin-3-yl)carbonylamino]ethyl]-3-carboxymethyl-1-(3-phenylpropyl)-2-pyrrolidinone×2 H2 O]
pIC50 [1]: 6.11 | pEC50 [3, 5]: 5.26

N=C(N)c1ccc(-c2ccc(OC[C@@H]3C[C@@H](CC(=O)O)C(=O)N3CCCc3ccccc3)nn2)cc1 [Example 4(11)]
pIC50 [1]: 7.49 | pEC50 [3, 5]: 7.00

N=C(N)c1ccc(-c2ccc(NC[C@@H]3C[C@@H](CC(=O)O)C(=O)N3)nn2)cc1 [Example 4(13), (3S,5S)-5-[[6-(4-amidinophenyl)-3-pyridazinyl]aminomethyl]-3-carboxymethyl-2-pyrrolidinone]
pIC50 [1]: 7.23 | pEC50 [3, 5]: 6.23

Cn1nc(-c2ccc(C(=N)N)cc2)cc(C(=O)NC[C@@H]2C[C@@H](CC(=O)O)C(=O)N2)c1=O [Example 4(15), (3S,5S)-5-[[[6-(4-amidinophenyl)-2-methyl-3(2H)-pyridazinon-4-yl]carbonyl]aminomethyl]-3-carboxymethyl-2-pyrrolidinone]
pIC50 [1]: 6.23 | pEC50 [3, 5]: 5.52

COC(=O)C[C@@H]1C[C@@H](COc2ccc(-c3ccc(C(=N)NC(=O)OC)cn3)cc2)NC1=O [Example 5, (3S,5S)-5-[[4-[5-(N-Methoxycarbonylamidino)-2-pyridyl]phenyl]oxymethyl]-3-[(methoxycarbonyl)methyl]-2-pyrrolidinone]
inhibits the collagen-induced thrombocyte aggregation ex vivo for (duration) [4]: more than 8 hours

COC(=O)C[C@@H]1C[C@@H](COc2ccc(-c3ccc(C(=N)N)cc3)cc2)N(c2cccnc2)C1=O [Example 6(3), (3S,5S)-5-[(4'-amidino-4-biphenylyl)oxymethyl]-3-[(methoxycarbonyl)methyl]-1-(3-pyridyl)-2-pyrrolidinone×1.2 HCl×1 H2 O]
pIC50 [1]: 4.89 | pEC50 [3, 5]: 5.60

N=C(N)N1Cc2ccc(C(=O)NCC[C@@H]3C[C@@H](CC(=O)O)C(=O)N3CCCc3ccccc3)cc2C1 [Example 11, (3S,5S)-5-[2-[(2-amidino-5-isoindolinyl)carbonylamino]ethyl]-3-carboxymethyl-1-(3-phenylpropyl)-2-pyrrolidinone]
pIC50 [1]: 6.57 | pEC50 [3, 5]: 6.05

O=C(O)C[C@@H]1C[C@@H](CCNC(=O)c2ccc(C3CCNCC3)cc2)N(CCCc2ccccc2)C1=O [Example 12(6), (3S,5S)-3-carboxymethyl-1-(3-phenylpropyl)-5-[2-[[4-(4-piperidinyl)phenyl]carbonylamino]ethyl]-2-pyrrolidinone×0.75 H2 O]
pIC50 [1]: 6.24 | pEC50 [3, 5]: 5.42
